Experimental findings from US8524909B2, “Tetrahydro-pyran derivatives” (Hoffmann-La Roche Inc., priority 2010, dated 2013) are described below.

Molecules are shown by their SMILES.

Broadly, the IC50 is the point on the concentration scale where inhibition reaches its midpoint. Low readings indicate greater potency in that assay, high ones weaker potency in that assay.

The target in this test is mGlyT-1b (Mus musculus (Mouse), UniProt P28571). Nature of the test: Glycine Uptake Inhibition Assay (mGlyT-1b). Conditions: [3H]-glycine uptake in Flp-in-CHO cells stably transfected with mGlyT1b cDNA; 20 min preincubation at 22° C. The format is cell-based. As for the experimental part: DMEM complete medium: Nutrient mixture F-12 (Gibco Life-technologies), fetal bovine serum (FBS) 5%, (Gibco life technologies), Penicillin/Streptomycin 1% (Gibco life technologies), Hygromycin 0.6 mg/ml (Gibco life technologies), Glutamine 1 mM Gibco life technologies)
Chain of mGlyT-1b (P28571 other isoform, or with tags, fused parts or gaps isoform P28571-2): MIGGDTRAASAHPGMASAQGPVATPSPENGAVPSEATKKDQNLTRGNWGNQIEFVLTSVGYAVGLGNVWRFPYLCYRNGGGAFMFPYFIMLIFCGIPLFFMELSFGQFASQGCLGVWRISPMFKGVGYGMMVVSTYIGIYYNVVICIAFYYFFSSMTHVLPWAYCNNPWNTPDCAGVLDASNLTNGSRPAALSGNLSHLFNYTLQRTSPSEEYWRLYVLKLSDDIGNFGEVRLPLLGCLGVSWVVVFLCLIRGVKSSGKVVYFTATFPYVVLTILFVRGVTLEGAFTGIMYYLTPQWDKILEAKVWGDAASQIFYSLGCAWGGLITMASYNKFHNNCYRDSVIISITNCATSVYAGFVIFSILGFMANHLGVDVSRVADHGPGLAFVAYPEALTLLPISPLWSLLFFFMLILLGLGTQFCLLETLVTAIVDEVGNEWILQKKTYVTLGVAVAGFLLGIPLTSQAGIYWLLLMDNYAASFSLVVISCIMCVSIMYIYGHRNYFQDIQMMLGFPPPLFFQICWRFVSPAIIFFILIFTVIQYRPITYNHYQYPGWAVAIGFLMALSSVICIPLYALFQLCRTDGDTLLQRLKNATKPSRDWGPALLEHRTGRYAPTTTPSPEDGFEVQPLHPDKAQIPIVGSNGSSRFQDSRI
Uptake buffer (UB): 150 mM NaCl, 10 mM Hepes-Tris, pH 7.4, 1 mM CaCl2, 2.5 mM KCl, 2.5 mM MgSO4, 10 mM (+) D-glucose.
Flp-in™-CHO (Invitrogen Cat no R758-07) cells stably transfected with mGlyT1b cDNA.
Glycine Uptake Inhibition Assay (mGlyT-1b)
On day 1 mammalian cells, (Flp-in™-CHO), transfected with mGlyT-1b cDNA, were plated at the density of 40,000 cells/well in complete F-12 medium, without hygromycin in 96-well culture plates. On day 2, the medium was aspirated and the cells were washed twice with uptake buffer (UB). The cells were then incubated for 20 min at 22° C. with either (i) no potential competitor, (ii) 10 mM non-radioactive glycine, (iii) a concentration of a potential inhibitor. A range of concentrations of the potential inhibitor was used to generate data for calculating the concentration of inhibitor resulting in 50% of the effect (e.g. IC50, the concentration of the competitor inhibiting glycine uptake of 50%). A solution was then immediately added containing [^3H]-glycine 60 nM (11-16 Ci/mmol) and 25 μM non-radioactive glycine. The plates were incubated with gentle shaking and the reaction was stopped by aspiration of the mixture and washing (three times) with ice-cold UB. The cells were lysed with scintillation liquid, shaken 3 hours and the radioactivity in the cells was counted using a scintillation counter.
`COc1cc(C(F)(F)F)cc(SC)c1C(=O)N[C@H]1COCC[C@H]1N1CCCC1` (racemic) [Example 1, 2-Methoxy-6-methylsulfanyl-N-((3RS,4RS)-4-pyrrolidin-1-yl-tetrahydro-pyran-3-yl)-4-trifluoromethyl-benzamide] registered an IC50 of 0.261 µM.
For `COc1cc(C(F)(F)F)cc(SC)c1C(=O)N[C@H]1COCC[C@@H]1N1CCCC1` (racemic) [Example 2, 2-Methoxy-6-methylsulfanyl-N-((3RS,4SR)-4-pyrrolidin-1-yl-tetrahydro-pyran-3-yl)-4-trifluoromethyl-benzamide] the value was 0.0662 µM; for `COc1cc(C(F)(F)F)cc(SC)c1C(=O)N[C@H]1COCC[C@H]1NC1CCC1` (racemic) [Example 3, N-((3RS,4RS)-4-Cyclobutylamino-tetrahydro-pyran-3-yl)-2-methoxy-6-methylsulfanyl-4-trifluoromethyl-benzamide], 0.506 µM; for `COc1cc(C(F)(F)F)cc(SC)c1C(=O)N[C@H]1COCC[C@@H]1NC1CCC1` (racemic) [Example 4, N-((3RS,4SR)-4-Cyclobutylamino-tetrahydro-pyran-3-yl)-2-methoxy-6-methylsulfanyl-4-trifluoromethyl-benzamide], 0.337 µM.
Turning to `COc1cc(C(F)(F)F)cc(SC)c1C(=O)N[C@H]1COCC[C@@H]1N1CCC(O)C1` (mixture of isomers) [Example 7, N-[(3RS,4SR)-4-(3-Hydroxy-pyrrolidin-1-yl)-tetrahydro-pyran-3-yl]-2-methoxy-6-methylsulfanyl-4-trifluoromethyl-benzamide], the IC50 was found to be 0.155 µM.
For `O=C(N[C@@H]1COCC[C@H]1N1CCCC1)c1ccc(C(F)(F)F)cc1C1CC1` (racemic) [Example 8, 2-Cyclopropyl-N-((3SR,4RS)-4-pyrrolidin-1-yl-tetrahydro-pyran-3-yl)-4-trifluoromethyl-benzamide] the value was 0.0363 µM.
For `CSc1cc(C(F)(F)F)cc(C(F)(F)F)c1C(=O)N[C@@H]1COCC[C@H]1N1CCCC1` (racemic) [Example 9, 2-Methylsulfanyl-N-((3SR,4RS)-4-pyrrolidin-1-yl-tetrahydro-pyran-3-yl)-4,6-bis-trifluoromethyl-benzamide] the value was 0.0165 µM.
For `Cc1cc(C(F)(F)F)cc(C(F)(F)F)c1C(=O)N[C@@H]1COCC[C@H]1N1CCCC1` (racemic) [Example 10, 2-Methyl-N-((3SR,4RS)-4-pyrrolidin-1-yl-tetrahydro-pyran-3-yl)-4,6-bis-trifluoromethyl-benzamide] the value was 0.0412 µM; for `COc1cc(C(F)(F)F)cc(SC)c1C(=O)N[C@@H]1COCC[C@H]1NC1CCCC1` (racemic) [Example 11, N-((3SR,4RS)-4-Cyclopentylamino-tetrahydro-pyran-3-yl)-2-methoxy-6-methylsulfanyl-4-trifluoromethyl-benzamide], 0.127 µM; for `O=C(N[C@@H]1COCC[C@H]1NC1CCCC1)c1ccc(C(F)(F)F)cc1C1CC1` (racemic) [Example 12, N-((3SR,4RS)-4-Cyclopentylamino-tetrahydro-pyran-3-yl)-2-cyclopropyl-4-trifluoromethyl-benzamide], 0.075 µM.
As to `CSc1cc(C(F)(F)F)cc(C(F)(F)F)c1C(=O)N[C@@H]1COCC[C@H]1NC1CCCC1` (racemic) [Example 13, N-((3SR,4RS)-4-Cyclopentylamino-tetrahydro-pyran-3-yl)-2-methylsulfanyl-4,6-bis-trifluoromethyl-benzamide], the IC50 was determined as 0.25 µM.
`O=C(N[C@@H]1COCC[C@H]1NC1CCCCC1)c1ccc(C(F)(F)F)cc1C1CC1` (racemic) [Example 14, N-((3SR,4RS)-4-Cyclohexylamino-tetrahydro-pyran-3-yl)-2-cyclopropyl-4-trifluoromethyl-benzamide] showed an IC50 of 0.125 µM.
For `O=C(N[C@@H]1COCC[C@H]1N1CCCC1)c1c(C2CC2)cc(C(F)(F)F)cc1C(F)(F)F` (racemic) [Example 15, 2-Cyclopropyl-N-((3SR,4RS)-4-pyrrolidin-1-yl-tetrahydro-pyran-3-yl)-4,6-bis-trifluoromethyl-benzamide] the value was 0.0132 µM.
`CC(C)N[C@@H]1CCOC[C@H]1NC(=O)c1ccc(C(F)(F)F)cc1C1CC1` (racemic) [Example 16, Cyclopropyl-N-((3SR,4RS)-4-isopropylamino-tetrahydro-pyran-3-yl)-4-trifluoro-methylbenzamide] registered a half-inhibitory concentration (IC50) of 0.296 µM.
For `O=C(N[C@@H]1COCC[C@H]1NC1CCOCC1)c1ccc(C(F)(F)F)cc1C1CC1` (racemic) [Example 17, 2-Cyclopropyl-N-[(3SR,4RS)-4-(tetrahydro-pyran-4-ylamino)-tetrahydro-pyran-3-yl]-4-trifluoro-methylbenzamide] the value was 0.904 µM; for `O=C(N[C@@H]1COCC[C@H]1NCC1CC1)c1ccc(C(F)(F)F)cc1C1CC1` (racemic) [Example 18, Cyclopropyl-N-[(3SR,4RS)-4-(cyclopropyl-methyl-amino)-tetrahydro-pyran-3-yl]-4-trifluoro-methylbenzamide], 0.126 µM.
For `O=C(N[C@@H]1COCC[C@H]1N1CCCCC1)c1ccc(C(F)(F)F)cc1C1CC1` (racemic) [Example 19, 2-Cyclopropyl-N-((3SR,4RS)-4-piperidin-1-yl-tetrahydro-pyran-3-yl)-4-trifluoro-methylbenzamide] the value was 0.0815 µM.
For `O=C(N[C@@H]1COCC[C@H]1NC1CC1)c1ccc(C(F)(F)F)cc1C1CC1` (racemic) [Example 20, 2-Cyclopropyl-N-((3SR,4RS)-4-cyclopropylamino-tetrahydro-pyran-3-yl)-4-trifluoromethyl-benzamide] the value was 0.193 µM; for `Cc1cc(C(F)(F)F)cc(C)c1C(=O)N[C@@H]1COCC[C@H]1N1CCCC1` (racemic) [Example 21, 2,6-Dimethyl-N-((3SR,4RS)-4-pyrrolidin-1-yl-tetrahydro-pyran-3-yl)-4-trifluoro-methylbenzamide], 0.0452 µM; for `COc1cc(C(F)(F)F)cc(C)c1C(=O)N[C@@H]1COCC[C@H]1N1CCCC1` (racemic) [Example 22, 2-Methoxy-6-methyl-N-((3SR,4RS)-4-pyrrolidin-1-yl-tetrahydro-pyran-3-yl)-4-trifluoro-methylbenzamide], 0.105 µM.
In turn, `CCc1cc(C(F)(F)F)cc(CC)c1C(=O)N[C@@H]1COCC[C@H]1N1CCCC1` (racemic) [Example 23, 2,6-Diethyl-N-((3SR,4RS)-4-pyrrolidin-1-yl-tetrahydro-pyran-3-yl)-4-trifluoro-methylbenzamide] returned an IC50 of 0.0584 µM.
Consider `CCc1cc(C(F)(F)F)cc(OC)c1C(=O)N[C@@H]1COCC[C@H]1N1CCCC1` (racemic) [Example 24, 2-Ethyl-6-methoxy-N-((3SR,4RS)-4-pyrrolidin-1-yl-tetrahydro-pyran-3-yl)-4-trifluoro-methyl-benzamide], for which the midpoint of inhibition, the IC50, lay at 0.0641 µM.
`COc1cc(C(F)(F)F)cc(SC)c1C(=O)N[C@@H]1COCC[C@H]1NC1(C)CCCCC1` (racemic) [Example 25, 2-Methoxy-N-[(3SR,4RS)-4-(1-methyl-cyclohexyl-amino)-tetrahydro-pyran-3-yl]-6-methyl-sulfanyl-4-trifluoromethyl-benzamide] registered an IC50 of 0.278 µM.
